Laboratory results: ChEMBL document CHEMBL1201862, “PubChem BioAssay data set” (2004)
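The compound was tested at five concentrations on cells cultured in 96-well plates, with a 48-hour exposure period. GI50 marks 50% less growth.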 Activity calls are given as the source filed them. No stated cut-off is given here; in the data, active = GI50 up to about 1.1 µM and inactive = higher.

Assays:
Experiment in all cases: NCI anticancer screen, dose series, 48 h
U-251 = tested on: U-251
UACC-62 = tested on: UACC-62
HT-29 = tested on: HT-29
UO-31 = tested on: UO-31
SR = tested on: SR
KM12 = tested on: KM12
OVCAR-5 = tested on: OVCAR-5
SK-MEL-2 = tested on: SK-MEL-2
SK-MEL-28 = tested on: SK-MEL-28
LOX IMVI = tested on: LOX IMVI
HCT-116 = tested on: HCT-116
K562 = tested on: K562
UACC-257 = tested on: UACC-257
KM-20L2 = tested on: KM-20L2
SF-539 = tested on: SF-539
HCC 2998 = tested on: HCC 2998

Row | SMILES | GI50 (U-251) | GI50 (UACC-62) | GI50 (HT-29) | GI50 (UO-31) | GI50 (SR) | GI50 (KM12) | GI50 (OVCAR-5) | GI50 (SK-MEL-2) | GI50 (SK-MEL-28) | GI50 (LOX IMVI) | GI50 (HCT-116) | GI50 (K562) | GI50 (UACC-257) | GI50 (KM-20L2) | GI50 (SF-539) | GI50 (HCC 2998)
1 | CC(=O)OC(CCC1(C)OC1COc1ccc(CCNC(=O)c2ccccc2)cc1)C(C)(C)OC(C)=O (centres undefined) | 37.3 µM (inactive) | 14.3 µM (inactive) | 17.4 µM (inactive) | 29.4 µM (inactive) | 0.493 µM (active) | 15.6 µM (inactive) | > 100 µM (inactive) | 17.3 µM (inactive) | 22 µM (inactive) | 2.18 µM (inactive) | 0.794 µM (active) | 0.752 µM (active) | 2.13 µM (inactive) | 30.1 µM (inactive) | > 100 µM (inactive) | 
2 | NC(CCCNc1cccc(O)c1)C(=O)O (centres undefined) | > 100 µM (inactive) | > 100 µM (inactive) | > 100 µM (inactive) | > 100 µM (inactive) | > 100 µM (inactive) |  | > 100 µM (inactive) | > 100 µM (inactive) | > 100 µM (inactive) | > 100 µM (inactive) | > 100 µM (inactive) | > 100 µM (inactive) | > 100 µM (inactive) | > 100 µM (inactive) |  | 
3 | CCCC1C(=O)CCc2c(OC)ccc(OC)c21 (centres undefined) | > 100 µM (inactive) | > 100 µM (inactive) | > 100 µM (inactive) | 17.1 µM (inactive) |  | > 100 µM (inactive) | > 100 µM (inactive) | > 100 µM (inactive) |  | > 100 µM (inactive) | 51.9 µM (inactive) | 59 µM (inactive) | > 100 µM (inactive) | > 100 µM (inactive) | > 100 µM (inactive) | > 100 µM (inactive)
4 | COc1cc([C@@H]2c3cc4c(cc3C(N)C3COC(=O)[C@@H]32)OCO4)cc(OC)c1O (some centres undefined) |  | 0.037 µM (active) | 0.232 µM (active) | 0.695 µM (active) | 0.0857 µM (active) |  |  |  |  | 0.241 µM (active) | 0.33 µM (active) | 0.225 µM (active) | 0.232 µM (active) | 0.176 µM (active) | 0.189 µM (active) | 0.249 µM (active)
5 | CC1CCN(CCC(=O)CC(c2ccccc2)c2c(O)c3ccccc3oc2=O)CC1 (centres undefined) | > 100 µM (inactive) | > 100 µM (inactive) | > 100 µM (inactive) | > 100 µM (inactive) | > 100 µM (inactive) | > 100 µM (inactive) |  | > 100 µM (inactive) | > 100 µM (inactive) | > 100 µM (inactive) | > 100 µM (inactive) | > 100 µM (inactive) | > 100 µM (inactive) | > 100 µM (inactive) | > 100 µM (inactive) | 
6 | COc1cc2c(cc1O)[C@@]1(Cc3ccc(OC)c(OC)c3)CCC(=O)N1CC2 |  | > 100 µM (inactive) | > 100 µM (inactive) | 63.2 µM (inactive) | 61.8 µM (inactive) | > 100 µM (inactive) | > 100 µM (inactive) |  | > 100 µM (inactive) | > 100 µM (inactive) | > 100 µM (inactive) | > 100 µM (inactive) | > 100 µM (inactive) | > 100 µM (inactive) | > 100 µM (inactive) | > 100 µM (inactive)
7 | N#C/C(=C\c1ccc(CP(=O)(O)O)cc1)C(N)=O | > 100 µM (inactive) | > 100 µM (inactive) | > 100 µM (inactive) | > 100 µM (inactive) |  | > 100 µM (inactive) | > 100 µM (inactive) | > 100 µM (inactive) | > 100 µM (inactive) | > 100 µM (inactive) | > 100 µM (inactive) | > 100 µM (inactive) | > 100 µM (inactive) | > 100 µM (inactive) | > 100 µM (inactive) | > 100 µM (inactive)
8 | COC(=O)C(C#N)=C1c2ccccc2Oc2ccccc21 |  | 35.7 µM (inactive) | 39.3 µM (inactive) | > 100 µM (inactive) |  | > 100 µM (inactive) | > 100 µM (inactive) | > 100 µM (inactive) | 56.6 µM (inactive) | > 100 µM (inactive) |  | 31.5 µM (inactive) | > 100 µM (inactive) | 91.2 µM (inactive) | 75.7 µM (inactive) | 98.9 µM (inactive)
